pKi: −log10 of the molar value. Like-named read-outs stand apart in the source and are kept apart here.
Assays:
DDR2 = DDR2 (Homo sapiens (Human), UniProt Q16832); assay: DDR2 LanthaScreen Europium Kinase Binding assay
Method: (§1) DDR1 and DDR2 binding assays were performed using Life Technologies LanthaScreen™ Europium Kinase Binding assay. The compounds were incubated with 5 nM DDR1 (Carna Biosciences) or 5 nM DDR2 (Life Technologies) for 1 hour at rt in white 384-well OptiPlate (PerkinElmer), containing 20 nM or 10 nM Kinase Tracer 178 respectively and 2 nM Europium labelled anti-GST antibody (Life Technologies) in assay buffer (50 mM HEPES pH 7.5, 10 mM MgCI2, 1 mM EGTA and 0.01% BRIJ35). The ratio of fluorescence emission 665 nm/615 nm after excitation at 340 nm was obtained using the Tecan Spark 20M plate reader. IC50 values were determined in GraphPad Prism 7.0 software, using 4 parameter model: log(inhibitor) vs. response. IC50 values were converted in Ki using the Cheng-Prusoff equation (Ki=IC50/(1+[Tracer]/Kd).
(§2) Compounds C1 and C2 were tested in the same binding assay described above.

DDR1 = DDR1 (Homo sapiens (Human), UniProt Q08345); assay: DDR1 LanthaScreen Europium Kinase Binding assay
Chain of DDR1 (Q08345 19-913): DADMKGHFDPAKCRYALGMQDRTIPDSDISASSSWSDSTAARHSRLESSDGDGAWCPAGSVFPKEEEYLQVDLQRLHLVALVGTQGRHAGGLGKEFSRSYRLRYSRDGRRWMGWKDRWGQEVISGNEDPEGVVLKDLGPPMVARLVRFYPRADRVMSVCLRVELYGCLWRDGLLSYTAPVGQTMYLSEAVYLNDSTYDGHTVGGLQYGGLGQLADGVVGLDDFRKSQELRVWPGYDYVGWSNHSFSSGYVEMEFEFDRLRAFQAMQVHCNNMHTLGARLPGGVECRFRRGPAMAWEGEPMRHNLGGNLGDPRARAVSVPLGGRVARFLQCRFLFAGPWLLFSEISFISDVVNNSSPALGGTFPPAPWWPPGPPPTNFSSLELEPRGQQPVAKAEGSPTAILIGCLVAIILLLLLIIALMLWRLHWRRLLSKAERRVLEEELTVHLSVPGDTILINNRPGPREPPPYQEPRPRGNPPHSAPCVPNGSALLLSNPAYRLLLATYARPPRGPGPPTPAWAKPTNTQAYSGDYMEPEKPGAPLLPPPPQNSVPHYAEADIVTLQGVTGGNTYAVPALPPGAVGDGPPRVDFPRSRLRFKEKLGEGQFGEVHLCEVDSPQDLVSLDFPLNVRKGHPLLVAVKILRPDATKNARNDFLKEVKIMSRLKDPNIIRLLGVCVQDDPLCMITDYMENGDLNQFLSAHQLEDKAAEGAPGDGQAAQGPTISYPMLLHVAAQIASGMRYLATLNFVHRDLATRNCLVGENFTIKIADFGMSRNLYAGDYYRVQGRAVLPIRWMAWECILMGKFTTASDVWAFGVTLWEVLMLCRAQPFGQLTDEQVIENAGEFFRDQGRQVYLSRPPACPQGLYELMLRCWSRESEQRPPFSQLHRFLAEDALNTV
Method: as §1, §2

[1] = binding, 5 nM DDR2, 10 nM Kinase Tracer 178, 1 hour at rt, Ki from IC50 by Cheng-Prusoff, read-out: Ki DDR2
[2] = binding, 5 nM DDR1, 20 nM Kinase Tracer 178, 1 hour at rt, Ki from IC50 by Cheng-Prusoff, read-out: Ki DDR1
[3] = same binding assay, numeric values, read-out: DDR1 Ki

Chain of DDR2 (Q16832 22-855): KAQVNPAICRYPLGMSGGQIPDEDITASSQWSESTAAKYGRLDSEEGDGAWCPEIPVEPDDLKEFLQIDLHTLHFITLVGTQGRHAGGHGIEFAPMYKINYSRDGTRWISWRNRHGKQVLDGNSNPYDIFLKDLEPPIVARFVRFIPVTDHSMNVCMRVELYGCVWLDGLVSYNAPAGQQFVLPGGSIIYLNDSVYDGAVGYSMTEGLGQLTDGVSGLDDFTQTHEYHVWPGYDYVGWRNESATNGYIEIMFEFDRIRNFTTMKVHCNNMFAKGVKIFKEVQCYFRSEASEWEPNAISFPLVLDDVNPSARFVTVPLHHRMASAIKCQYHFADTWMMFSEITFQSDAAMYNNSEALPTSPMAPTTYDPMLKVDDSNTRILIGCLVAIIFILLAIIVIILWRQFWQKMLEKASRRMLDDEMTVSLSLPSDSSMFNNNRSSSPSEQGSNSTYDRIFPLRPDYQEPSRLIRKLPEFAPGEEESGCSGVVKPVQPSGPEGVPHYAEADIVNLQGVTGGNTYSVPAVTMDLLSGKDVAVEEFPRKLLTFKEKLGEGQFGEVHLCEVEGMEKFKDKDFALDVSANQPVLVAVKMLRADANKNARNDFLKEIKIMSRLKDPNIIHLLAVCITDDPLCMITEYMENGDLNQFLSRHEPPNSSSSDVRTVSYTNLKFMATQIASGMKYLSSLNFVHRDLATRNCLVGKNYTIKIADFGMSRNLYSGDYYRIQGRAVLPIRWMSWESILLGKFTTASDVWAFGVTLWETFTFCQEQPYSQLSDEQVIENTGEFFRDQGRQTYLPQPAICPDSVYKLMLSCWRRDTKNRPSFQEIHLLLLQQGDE

pKi (DDR2; [1])	pKi (DDR1; [2])	pKi (DDR2; same binding assay, numeric values, read-out: DDR2 Ki)	Structure (SMILES)	Ki (DDR2; DDR2 Ki (nM), same binding assay, numeric values) [nM]	pKi (DDR1; [3])
> 8.00	> 8.00		Cc1ccc(C(=O)Nc2cccc(C(F)(F)F)c2)cc1C1CCN(c2ccnc(C(N)=O)c2)C1 (racemic) [Example 53, 4-(3-(2-methyl-5-((3-(trifluoromethyl)phenyl)carbamoyl)phenyl)pyrrolidin-1-yl)picolinamide]		
> 8.00	> 8.00		Cc1ccc(C(=O)Nc2cccc(C(F)(F)F)c2)cc1C1CCN(c2ccnc(C(N)=O)c2)C1 (single isomer, unassigned) [Example 54, 4-(3-(2-methyl-5-((3-(trifluoromethyl)phenyl)carbamoyl)phenyl)pyrrolidin-1-yl)picolinamide]		
7.22 to 7.60	7.60 to 8.00		Cc1ccc(C(=O)Nc2cccc(C(F)(F)F)c2)cc1C1CCN(c2ccnc(C(N)=O)c2)C1 (single isomer, unassigned) [Example 55, 4-(3-(2-methyl-5-((3-(trifluoromethyl)phenyl)carbamoyl)phenyl)pyrrolidin-1-yl)picolinamide]		
			Cc1ccc(C(=O)Nc2cccc(C(F)(F)F)c2)cc1C1CN1c1cccnc1 (stereo not shown) [Compound C1, 4-methyl-3-(1-(pyridin-3-yl)aziridin-2-yl)-N-(3-(trifluoromethyl)phenyl)benzamide, reference compound]	305	6.76
		6.12	Cc1ccc(C(=O)Nc2cccc(C(F)(F)F)c2)cc1C1CCN(Cc2cccnc2)C1 (stereo not shown) [Compound C2, 4-methyl-3-(1-(pyridin-3-ylmethyl)pyrrolidin-3-yl)-N-(3-(trifluoromethyl)phenyl)benzamide, reference compound]		6.24
> 8.00	> 8.00		CNC(=O)c1cc(N2CCC(c3cc(C(=O)Nc4cccc(C(F)(F)F)c4)ccc3C)C2)ccn1 (stereo not shown) [Example 1, N-methyl-4-(3-(2-methyl-5-((3-(trifluoromethyl)phenyl)carbamoyl)phenyl)pyrrolidin-1-yl)picolinamide]		
> 8.00	> 8.00		Cc1ccc(C(=O)Nc2cccc(C(F)(F)F)c2)cc1C1CCN(c2cccnc2)C1 (stereo not shown) [Example 2, 4-methyl-3-(1-(pyridin-3-yl)pyrrolidin-3-yl)-N-(3-(trifluoromethyl)phenyl)benzamide]		
> 8.00	> 8.00		COc1cncc(N2CCC(c3cc(C(=O)Nc4cccc(C(F)(F)F)c4)ccc3C)C2)c1 (stereo not shown) [Example 3, 3-(1-(5-methoxypyridin-3-yl)pyrrolidin-3-yl)-4-methyl-N-(3-(trifluoromethyl)phenyl)benzamide]		
7.22 to 7.60	7.60 to 8.00		Cc1ccc(C(=O)Nc2cccc(C(F)(F)F)c2)cc1C1CCN(c2cncc(C#N)c2)C1 (stereo not shown) [Example 4, 3-(1-(5-cyanopyridin-3-yl)pyrrolidin-3-yl)-4-methyl-N-(3-(trifluoromethyl)phenyl)benzamide]		
7.22 to 7.60	> 8.00		Cc1ccc(C(=O)Nc2cccc(C(F)(F)F)c2)cc1C1CCN(c2cncc(OCCN3CCOCC3)c2)C1 (stereo not shown) [Example 5, 4-methyl-3-(1-(5-(2-morpholinoethoxy)pyridin-3-yl)pyrrolidin-3-yl)-N-(3-(trifluoromethyl)phenyl)benzamide]		
> 8.00	> 8.00		Cc1ccc(C(=O)Nc2cccc(C(F)(F)F)c2)cc1C1CCN(c2cncc(OCCN3CCN(C)CC3)c2)C1 (stereo not shown) [Example 6, 4-methyl-3-(1-(5-(2-(4-methylpiperazin-1-yl)ethoxy)pyridin-3-yl)pyrrolidin-3-yl)-N-(3-(trifluoromethyl)phenyl)benzamide]		
> 8.00	> 8.00		Cc1ccc(C(=O)Nc2cccc(C(F)(F)F)c2)cc1C1CCN(c2cncc(C(=O)NCCN(C)C)c2)C1 (stereo not shown) [Example 7, N-(2-(dimethylamino)ethyl)-5-(3-(2-methyl-5-((3-(trifluoromethyl)phenyl)carbamoyl)phenyl)pyrrolidin-1-yl)nicotinamide]		
7.22 to 7.60	> 8.00		Cc1ccc(C(=O)Nc2cccc(C(F)(F)F)c2)cc1C1CCN(c2cncc(N3CCOCC3)c2)C1 (stereo not shown) [Example 8, 4-methyl-3-(1-(5-morpholinopyridin-3-yl)pyrrolidin-3-yl)-N-(3-(trifluoromethyl)phenyl)benzamide]		
7.60 to 8.00	> 8.00		COCCNC(=O)c1cncc(N2CCC(c3cc(C(=O)Nc4cccc(C(F)(F)F)c4)ccc3C)C2)c1 (stereo not shown) [Example 9, N-(2-methoxyethyl)-5-(3-(2-methyl-5-((3-(trifluoromethyl)phenyl)carbamoyl)phenyl)pyrrolidin-1-yl)nicotinamide]		
7.60 to 8.00	> 8.00		CNC(=O)c1cncc(N2CCC(c3cc(C(=O)Nc4cccc(C(F)(F)F)c4)ccc3C)C2)c1 (stereo not shown) [Example 10, N-methyl-5-(3-(2-methyl-5-((3-(trifluoromethyl)phenyl)carbamoyl)phenyl)pyrrolidin-1-yl)nicotinamide]		
7.60 to 8.00	> 8.00		Cc1ccc(C(=O)Nc2cccc(C(F)(F)F)c2)cc1C1CCN(c2cncc(CN3CCOCC3)c2)C1 (stereo not shown) [Example 11, 4-methyl-3-(1-(5-(morpholinomethyl)pyridin-3-yl)pyrrolidin-3-yl)-N-(3-(trifluoromethyl)phenyl)benzamide]		
7.60 to 8.00	> 8.00		Cc1ccc(C(=O)Nc2cccc(C(F)(F)F)c2)cc1C1CCN(c2cncc(N3CCN(C)CC3)c2)C1 (stereo not shown) [Example 12, 4-methyl-3-(1-(5-(4-methylpiperazin-1-yl)pyridin-3-yl)pyrrolidin-3-yl)-N-(3-(trifluoromethyl)phenyl)benzamide]		
7.22 to 7.60	7.60 to 8.00		Cc1ccc(C(=O)Nc2cccc(C(F)(F)F)c2)cc1C1CCN(c2cncc(Br)c2)C1 (stereo not shown) [Example 13, 3-(1-(5-bromopyridin-3-yl)pyrrolidin-3-yl)-4-methyl-N-(3-(trifluoromethyl)phenyl)benzamide]		
> 8.00	> 8.00		Cc1ccc(C(=O)Nc2cccc(C(F)(F)F)c2)cc1C1CCN(C(=O)c2cccnc2)C1 (stereo not shown) [Example 14, 4-methyl-3-(1-nicotinoylpyrrolidin-3-yl)-N-(3-(trifluoromethyl)phenyl)benzamide]		
7.22 to 7.60	7.60 to 8.00		Cc1ccc(C(=O)Nc2cccc(C(F)(F)F)c2)cc1[C@H]1CCN(c2cccnc2)C1 [Example 15, (R)-4-methyl-3-(1-(pyridin-3-yl)pyrrolidin-3-yl)-N-(3-(trifluoromethyl)phenyl)benzamide]		
> 8.00	> 8.00		Cc1ccc(C(=O)Nc2cccc(C(F)(F)F)c2)cc1[C@@H]1CCN(c2cccnc2)C1 [Example 16, (S)-4-methyl-3-(1-(pyridin-3-yl)pyrrolidin-3-yl)-N-(3-(trifluoromethyl)phenyl)benzamide]		
7.60 to 8.00	> 8.00		Cc1ccc(C(=O)Nc2cccc(C(F)(F)F)c2)cc1C1CCN(c2cncc(C(N)=O)c2)C1 (stereo not shown) [Example 17, 5-(3-(2-methyl-5-((3-(trifluoromethyl)phenyl)carbamoyl)phenyl)pyrrolidin-1-yl)nicotinamide]		
7.60 to 8.00	> 8.00		Cc1ccc(C(=O)Nc2cccc(C(F)(F)F)c2)cc1[C@H]1CCN(c2cncc(C(N)=O)c2)C1 [Example 18, (R)-5-(3-(2-methyl-5-((3-(trifluoromethyl)phenyl)carbamoyl)phenyl)pyrrolidin-1-yl)nicotinamide]		
> 8.00	> 8.00		Cc1ccc(C(=O)Nc2cccc(C(F)(F)F)c2)cc1[C@@H]1CCN(c2cncc(C(N)=O)c2)C1 [Example 19, (S)-5-(3-(2-methyl-5-((3-(trifluoromethyl)phenyl)carbamoyl)phenyl)pyrrolidin-1-yl)nicotinamide]		
> 8.00	> 8.00		Cc1ccc(C(=O)Nc2cccc(C(F)(F)F)c2)cc1[C@@H]1CCN(c2cncnc2)C1 [Example 20, (S)-4-methyl-3-(1-(pyrimidin-5-yl)pyrrolidin-3-yl)-N-(3-(trifluoromethyl)phenyl)benzamide]		
7.22 to 7.60	> 8.00		Cc1ccc(C(=O)Nc2cccc(C(F)(F)F)c2)cc1C1CCN(c2cncc(NCCN(C)C)c2)C1 (stereo not shown) [Example 21, 3-(1-(5-((2-(dimethylamino)ethyl)amino)pyridin-3-yl)pyrrolidin-3-yl)-4-methyl-N-(3-(trifluoromethyl)phenyl)benzamide]		
7.60 to 8.00	> 8.00		Cc1ccc(C(=O)Nc2cccc(C(F)(F)F)c2)cc1C1CCN(c2cncc(NCCN3CCOCC3)c2)C1 (stereo not shown) [Example 22, 4-methyl-3-(1-(5-((2-morpholinoethyl)amino)pyridin-3-yl)pyrrolidin-3-yl)-N-(3-(trifluoromethyl)phenyl)benzamide]		
> 8.00	> 8.00		Cc1ccc(C(=O)Nc2cccc(C(F)(F)F)c2)cc1C1CCN(c2cncc(OCCN(C)C)c2)C1 (stereo not shown) [Example 23, 3-(1-(5-(2-(dimethylamino)ethoxy)pyridin-3-yl)pyrrolidin-3-yl)-4-methyl-N-(3-(trifluoromethyl)phenyl)benzamide]		
< 7.22	7.22 to 7.60		Cc1ccc(C(=O)Nc2cccc(C(F)(F)F)c2)cc1C1CCN(c2ccnc(C#N)c2)C1 (stereo not shown) [Example 24, 3-(1-(2-cyanopyridin-4-yl)pyrrolidin-3-yl)-4-methyl-N-(3-(trifluoromethyl)phenyl)benzamide]		
